Conditions: comparison with donepezil hydrochloride tablet

COc1cc2c(cc1OC)C(=O)C(CC1CCN(Cc3ccccc3)CC1)C2.O=S(=O)(O)O (stereo not shown) [Example 12, donepezil sulfate (1:1)]
Stability of tablets prepared from the salt, compared with the tablet prepared from the hydrochloride salt: practically identical to that of the tablet prepared from the hydrochloride salt

From patent US20080194628A1, “Donepezil Salts Suitable for the Preparation of Pharmaceutical Compositions” (priority 2004, published 2008)
